Measured values reported in patent US11993581B2, “Pyridazine compounds for inhibiting Nav1.8” (Lieber Institute, Inc., priority 2018, dated 2024).

Each compound was assayed against T1, human Nav1.8 (hNav1.8) ion channel (Homo sapiens, UniProt Q9Y5Y9) (assay: Nav1.8 inhibition, estimated IC50 (Nav1.8 fluorescence, PatchXpress and/or IonFlux HT automated patch clamp assay)). Conditions: HEK293 cells stably expressing hNav1.8; determined using one or more of the described methods; read-out: Activity range (estimated IC50).
T1 construct: expressed in transfected cells
Assay type: cell-based
Protocol: The ability of pyridine carboxamide derivatives exemplified above to inhibit the Nav1.8 channel was determined using one or more of the methods described below.
HEK Nav1.8 β1/β2 Stably Expressing Cell Line
A HEK293 cell line stably expressing the human Nav1.8 (hNav1.8) ion channel with β1/β2 subunits was constructed. The cell line is suitable for IC50 determination in fluorescence and electrophysiological based assays. It is also suitable to conduct mechanism of action pharmacology studies in electrophysiological assays. HEK293 Nav1.8 cells are grown as adherent monolayers in DMEM/high glucose media, 10% fetal bovine serum, Na pyruvate (2 mM), Hepes (10 mM) with selection agents G418 (400 mg/L) and puromycin (0.5 mg/L) at 37 degrees C., 10% CO2.
Nav1.8 Fluorescence Inhibition Assay
Compounds were made up to or supplied as a 10-mM stock solution using DMSO as the vehicle. Concentration-response curves were generated using a Matrix multichannel pipettor. Compound source plates were made by diluting 10 mM compound stocks to create 500 μM (100×) solutions in DMSO in 96-well v-bottom plates. Compounds were then serially diluted in 100% DMSO to generate a 5 point, 4-fold dilution scheme dose response curve. 2 μL of the 100× dose response curves were then added to preincubation and stimulation assay plates. 100 μL of pre-incubation buffer and 200 μl of stimulation buffer was then added to the plates resulting in a final assay test concentration range of 5 μM to 0.02 μM with a final DMSO concentration of 1%.
On the day of assay, plates were washed to remove cell culture media using 2K EBSS buffer (135 mM NaCl, 2 mM KCl, 5 mM Glucose, 2 mM CaCl2, 1 mM MgCl2, 10 mM HEPES, pH 7.4). The Na-sensitive fluorescent dye, Asante Natrium Green-2 (ANG-2) was incubated for 60 min to allow equilibration and then washed with 2K EBSS. Plates were then transferred to a fluorescence plate reader (FLIPR™, Molecular Devices) for fluorescence measurement using an excitation wavelength of 490 nm and an emission wavelength of 565 nm. Compounds were pre-incubated for 5 min at final test concentration in the presence of ouabain (30 μM) to inhibit Na+ efflux through Na+/K+ exchanger. Following the pre-incubation phase, hNav1.8 channels were stimulated with 10 μM of the pyrethroid deltamethrin to prevent channel inactivation. The assay was run for 15 minutes with vehicle and 30 μM tetracaine serving as negative and positive controls, respectively. The peak change in fluorescence relative to negative and positive control wells was calculated and fit with a logistic equation to determine IC50.
PatchXpress Nav1.8 Inhibition Assay
HEK-Nav1.8 β1/β2 cells were recorded in whole cell patch-clamp using the PatchXpress automated patch clamp platforms (Molecular Devices). Cell suspensions were obtained by trypsinization of adherent monolayers, followed by gentle rocking for minimally 30 min. Compounds were prepared from 10 mM DMSO stocks.
Nav1.8 channel variants were evaluated using Protocol 1 in which cells were initially voltage clamped at a holding potential of −100 mV to maintain Nav1.8 in a closed resting state. After current amplitude becomes stable, the mid-point voltage of steady state inactivation was determined for each cell using a series of 5 sec conditioning steps to increasingly depolarized voltages (−100 to 0 mV) The holding potential was then reset to a voltage that produces ˜50% inactivation (Vhalf-set automatically via PatchXpress scripts) so that closed and inactivated channel inhibition could be assessed. Protocol 1 was run at a frequency of 0.1 Hz until current amplitude is steady (automatically determined by PatchXpress scripts). The effect of test reagent on Nav current amplitude was monitored using custom PatchXpress stability scripts which determines the timing of compound addition and washout.
Data were processed and analyzed using DataXpress 2.0 (Molecular Devices). […]

T1 sequence (Q9Y5Y9 whole entry): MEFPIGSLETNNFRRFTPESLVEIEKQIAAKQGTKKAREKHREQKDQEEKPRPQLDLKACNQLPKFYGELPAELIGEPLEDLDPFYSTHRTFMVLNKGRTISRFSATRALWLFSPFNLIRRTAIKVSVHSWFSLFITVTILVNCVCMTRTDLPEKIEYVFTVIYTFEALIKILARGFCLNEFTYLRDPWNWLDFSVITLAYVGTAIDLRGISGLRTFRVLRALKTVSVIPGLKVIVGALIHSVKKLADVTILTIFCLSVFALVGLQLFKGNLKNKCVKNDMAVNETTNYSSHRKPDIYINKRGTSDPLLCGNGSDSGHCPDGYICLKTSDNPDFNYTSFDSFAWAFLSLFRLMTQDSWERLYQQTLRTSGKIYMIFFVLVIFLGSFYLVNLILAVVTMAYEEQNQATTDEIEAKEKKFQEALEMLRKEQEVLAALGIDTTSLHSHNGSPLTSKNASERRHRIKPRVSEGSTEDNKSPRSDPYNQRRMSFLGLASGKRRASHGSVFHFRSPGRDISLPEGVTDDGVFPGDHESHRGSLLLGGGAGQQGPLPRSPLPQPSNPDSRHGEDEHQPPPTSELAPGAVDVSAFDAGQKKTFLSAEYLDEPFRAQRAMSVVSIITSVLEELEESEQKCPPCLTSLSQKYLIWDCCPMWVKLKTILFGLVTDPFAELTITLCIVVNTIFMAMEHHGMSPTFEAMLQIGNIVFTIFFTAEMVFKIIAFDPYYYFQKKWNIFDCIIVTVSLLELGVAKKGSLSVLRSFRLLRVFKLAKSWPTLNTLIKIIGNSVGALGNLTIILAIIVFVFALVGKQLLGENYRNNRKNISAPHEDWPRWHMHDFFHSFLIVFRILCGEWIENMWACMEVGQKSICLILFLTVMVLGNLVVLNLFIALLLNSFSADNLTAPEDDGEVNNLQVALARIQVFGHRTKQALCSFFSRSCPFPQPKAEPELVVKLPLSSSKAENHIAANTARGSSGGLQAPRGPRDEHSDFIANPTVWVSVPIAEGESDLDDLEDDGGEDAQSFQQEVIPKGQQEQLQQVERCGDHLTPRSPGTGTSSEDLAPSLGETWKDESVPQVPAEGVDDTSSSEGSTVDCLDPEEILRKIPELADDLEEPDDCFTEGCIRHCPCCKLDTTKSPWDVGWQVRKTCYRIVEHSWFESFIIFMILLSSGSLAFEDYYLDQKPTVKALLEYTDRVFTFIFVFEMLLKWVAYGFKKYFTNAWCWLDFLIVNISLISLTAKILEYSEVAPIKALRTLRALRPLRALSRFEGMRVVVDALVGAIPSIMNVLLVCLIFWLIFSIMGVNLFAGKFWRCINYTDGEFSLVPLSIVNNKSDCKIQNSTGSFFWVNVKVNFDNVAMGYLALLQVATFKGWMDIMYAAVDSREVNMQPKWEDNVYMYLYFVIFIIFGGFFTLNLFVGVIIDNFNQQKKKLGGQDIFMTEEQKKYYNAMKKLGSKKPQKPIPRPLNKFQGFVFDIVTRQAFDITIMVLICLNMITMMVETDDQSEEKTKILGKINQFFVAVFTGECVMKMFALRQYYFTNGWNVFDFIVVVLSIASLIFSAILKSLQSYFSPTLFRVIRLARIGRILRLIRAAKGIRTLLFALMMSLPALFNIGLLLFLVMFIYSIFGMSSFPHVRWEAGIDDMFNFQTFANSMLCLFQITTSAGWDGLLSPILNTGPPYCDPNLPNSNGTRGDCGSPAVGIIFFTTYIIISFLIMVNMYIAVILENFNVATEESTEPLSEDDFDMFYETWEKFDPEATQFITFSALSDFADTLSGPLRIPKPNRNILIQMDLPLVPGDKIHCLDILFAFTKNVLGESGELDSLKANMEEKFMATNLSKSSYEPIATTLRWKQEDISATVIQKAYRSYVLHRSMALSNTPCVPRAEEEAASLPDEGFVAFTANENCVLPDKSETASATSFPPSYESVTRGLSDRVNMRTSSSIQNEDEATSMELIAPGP
T1 sequence (Q07699 19-218 partner): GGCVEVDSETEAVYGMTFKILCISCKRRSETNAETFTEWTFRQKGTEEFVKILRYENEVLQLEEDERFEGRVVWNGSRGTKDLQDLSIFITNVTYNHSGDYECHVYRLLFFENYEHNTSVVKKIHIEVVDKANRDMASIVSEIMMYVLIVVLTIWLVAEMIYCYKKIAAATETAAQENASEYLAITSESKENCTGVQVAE

Row | IC50 [nM] | Compound
1 | < 500 | 6-[4-(difluoromethoxy)phenyl]-N-[(2-morpholinophenyl)methyl]pyridazine-4-carboxamide [Example 56]
2 | < 500 | O=C(NCc1cccnc1N1CCOCC1)c1cnnc(-c2ccc(OCC3CC3)c(Cl)c2)c1 [Example 1, 6-(3-chloro-4-(cyclopropylmethoxy)phenyl)-N-((2-morpholinopyridin-3-yl)methyl)pyridazine-4-carboxamide]
3 | > 1000 | O=C(NCc1cccnc1N1CCOCC1)c1cnnc(-c2ccc(Cl)nc2)c1 [Example 2, 6-(6-chloro-3-pyridyl)-N-[(2-morpholino-3-pyridyl)methyl]pyridazine-4-carboxamide]
4 | 500 to 1000 | O=C(NCc1cccnc1N1CCOCC1)c1cnnc(-c2cccc(Cl)c2)c1 [Example 3, 6-(3-chlorophenyl)-N-[(2-morpholino-3-pyridyl)methyl]pyridazine-4-carboxamide]
5 | < 500 | Cc1cc(Cl)ccc1-c1cc(C(=O)NCc2cccnc2N2CCOCC2)cnn1 [Example 4, 6-(4-chloro-2-methyl-phenyl)-N-[(2-morpholino-3-pyridyl)methyl]pyridazine-4-carboxamide]
6 | < 500 | O=C(NCc1cccnc1N1CCOCC1)c1cnnc(-c2ccc(OC(F)(F)F)cc2)c1 [Example 6, N-[(2-morpholino-3-pyridyl)methyl]-6-[4-(trifluoromethoxy)phenyl]pyridazine-4-carboxamide]
7 | < 500 | O=C(NCc1cccnc1N1CCOCC1)c1cnnc(-c2ccc(OCC(F)(F)F)cc2)c1 [Example 7, N-[(2-morpholino-3-pyridyl)methyl]-6-[4-(2,2,2-trifluoroethoxy)phenyl]pyridazine-4-carboxamide]
8 | < 500 | O=C(NCc1cccnc1N1CCOCC1)c1cnnc(-c2ccc(OCC3CC3)cc2)c1 [Example 8, 6-[4-(cyclopropylmethoxy)phenyl]-N-[(2-morpholino-3-pyridyl)methyl]pyridazine-4-carboxamide]
9 | < 500 | CCOc1ccc(-c2cc(C(=O)NCc3cccnc3N3CCOCC3)cnn2)cc1Cl [Example 9, 6-(3-chloro-4-ethoxy-phenyl)-N-[(2-morpholino-3-pyridyl)methyl]pyridazine-4-carboxamide]
10 | < 500 | CCCOc1ccc(-c2cc(C(=O)NCc3cccnc3N3CCOCC3)cnn2)cc1Cl [Example 10, 6-(3-chloro-4-propoxy-phenyl)-N-[(2-morpholino-3-pyridyl)methyl]pyridazine-4-carboxamide]
11 | < 500 | CC(C)Oc1ccc(-c2cc(C(=O)NCc3cccnc3N3CCOCC3)cnn2)cc1Cl [Example 11, 6-(3-chloro-4-isopropoxy-phenyl)-N-[(2-morpholino-3-pyridyl)methyl]pyridazine-4-carboxamide]
12 | < 500 | CCOc1ccc(-c2cc(C(=O)NCc3cccnc3N3CCOCC3)cnn2)cc1F [Example 12, 6-(4-ethoxy-3-fluoro-phenyl)-N-[(2-morpholino-3-pyridyl)methyl]pyridazine-4-carboxamide]
13 | < 500 | CCCOc1ccc(-c2cc(C(=O)NCc3cccnc3N3CCOCC3)cnn2)cc1F [Example 13, 6-(3-fluoro-4-propoxy-phenyl)-N-[(2-morpholino-3-pyridyl)methyl]pyridazine-4-carboxamide]
14 | < 500 | CC(C)Oc1ccc(-c2cc(C(=O)NCc3cccnc3N3CCOCC3)cnn2)cc1F [Example 14, 6-(3-fluoro-4-isopropoxy-phenyl)-N-[(2-morpholino-3-pyridyl)methyl]pyridazine-4-carboxamide]
15 | < 500 | O=C(NCc1cccnc1N1CCOCC1)c1cnnc(-c2ccc(OC3CC3)cc2)c1 [Example 15, 6-[4-(cyclopropoxy)phenyl]-N-[(2-morpholino-3-pyridyl)methyl]pyridazine-4-carboxamide]
16 | < 500 | O=C(NCc1cccnc1N1CCOCC1)c1cnnc(-c2ccc(OCC3CC3)nc2)c1 [Example 16, 6-[6-(cyclopropylmethoxy)-3-pyridyl]-N-[(2-morpholino-3-pyridyl)methyl]pyridazine-4-carboxamide]
17 | > 1000 | O=C(NCc1cccnc1N1CCOCC1)c1cnnc(-c2ccc(Cl)cc2)c1 [Example 17, 6-(4-chlorophenyl)-N-[(2-morpholino-3-pyridyl)methyl]pyridazine-4-carboxamide]
18 | < 500 | O=C(NCc1cccnc1N1CC2(COC2)C1)c1cnnc(-c2ccc(OCC3CC3)c(Cl)c2)c1 [Example 19, 6-[3-chloro-4-(cyclopropylmethoxy)phenyl]-N-[[2-(2-oxa-6-azaspiro[3.3]heptan-6-yl)-3-pyridyl]methyl]pyridazine-4-carboxamide]
19 | < 500 | O=C(NCc1cccnc1OCC(F)(F)F)c1cnnc(-c2ccc(OCC3CC3)c(Cl)c2)c1 [Example 20, 6-[3-chloro-4-(cyclopropylmethoxy)phenyl]-N-[[2-(2,2,2-trifluoroethoxy)-3-pyridyl]methyl]pyridazine-4-carboxamide]
20 | < 500 | O=C(NCc1cccnc1N1CCCOCC1)c1cnnc(-c2ccc(OCC3CC3)c(Cl)c2)c1 [Example 21, 6-[3-chloro-4-(cyclopropylmethoxy)phenyl]-N-[[2-(1,4-oxazepan-4-yl)-3-pyridyl]methyl]pyridazine-4-carboxamide]
21 | < 500 | CC1CN(c2ncccc2CNC(=O)c2cnnc(-c3ccc(OCC4CC4)c(Cl)c3)c2)CCO1 (stereo not shown) [Example 22, 6-[3-chloro-4-(cyclopropylmethoxy)phenyl]-N-[[2-(2-methylmorpholin-4-yl)-3-pyridyl]methyl]pyridazine-4-carboxamide]
22 | < 500 | CC1COCCN1c1ncccc1CNC(=O)c1cnnc(-c2ccc(OCC3CC3)c(Cl)c2)c1 (stereo not shown) [Example 23, 6-[3-chloro-4-(cyclopropylmethoxy)phenyl]-N-[[2-(3-methylmorpholin-4-yl)-3-pyridyl]methyl]pyridazine-4-carboxamide]
23 | < 500 | Cc1ccc(CNC(=O)c2cnnc(-c3ccc(OCC4CC4)c(Cl)c3)c2)c(N2CCOCC2)n1 [Example 24, 6-[3-chloro-4-(cyclopropylmethoxy)phenyl]-N-[(6-methyl-2-morpholino-3-pyridyl)methyl]pyridazine-4-carboxamide]
24 | < 500 | Cc1ccnc(N2CCOCC2)c1CNC(=O)c1cnnc(-c2ccc(OCC3CC3)c(Cl)c2)c1 [Example 25, 6-[3-chloro-4-(cyclopropylmethoxy)phenyl]-N-[(4-methyl-2-morpholino-3-pyridyl)methyl]pyridazine-4-carboxamide]
25 | > 1000 | Cc1cnc(N2CCOCC2)c(CNC(=O)c2cnnc(-c3ccc(OCC4CC4)c(Cl)c3)c2)c1 [Example 26, 6-[3-chloro-4-(cyclopropylmethoxy)phenyl]-N-[(5-methyl-2-morpholino-3-pyridyl)methyl]pyridazine-4-carboxamide]
26 | < 500 | O=C(NCc1ccccc1N1CCOCC1)c1cnnc(-c2ccc(OCC3CC3)c(Cl)c2)c1 [Example 27, 6-[3-chloro-4-(cyclopropylmethoxy)phenyl]-N-[(2-morpholinophenyl)methyl]pyridazine-4-carboxamide]
27 | < 500 | CN(C)c1ncccc1CNC(=O)c1cnnc(-c2ccc(OCC3CC3)c(Cl)c2)c1 [Example 28, 6-[3-chloro-4-(cyclopropylmethoxy)phenyl]-N-[[2-(dimethylamino)-3-pyridyl]methyl]pyridazine-4-carboxamide]

Row | Compound | IC50 [nM]
28 | CC(C)COc1ccc(-c2cc(C(=O)NCc3cccnc3N3CCOCC3)cnn2)cc1 [Example 5, 6-(4-isobutoxyphenyl)-N-[(2-morpholino-3-pyridyl)methyl]pyridazine-4-carboxamide] | < 500
